Data on 18 molecules can be found in patent publication US11746103B2, “ALK-5 inhibitors and uses thereof” (Sumitomo Pharma Oncology, Inc., priority 2020, dated 2023).

In test [1] the target is ALK-5 (Homo sapiens (Human), UniProt P36897). The experiment in a line: LanthaScreen Eu Kinase Binding Assay, ALK-5. Particulars: for IC50: read-out: Kinase Inhibition: ALK5 IC50. Here is the method:
Activity determinations and selectivity were conducted by Thermo Fisher Scientific “SelectScreen™ Biochemical Kinase Profiling Service” using their “LanthaScreen™ Eu Kinase Binding Assay Screening” (www.thermofisher.com/selectscreen). Binding of an Alexa Fluor™ conjugate or “tracer” to a kinase is detected by addition of a Eu-labeled anti-tag antibody. Binding of the tracer and antibody to a kinase results in a high degree of FRET, whereas displacement of the tracer with a kinase inhibitor results in a loss of FRET. This assay is carried out by mixing the compound tested with the reagents and reading, no development step is required. Life Technologies' Kinase Tracers are based on ATP-competitive kinase inhibitors, making them suitable for detection of any compounds that bind to the ATP site. Inhibitors that bind the ATP site include both Type I kinase inhibitors, which bind solely to the ATP site, and Type II inhibitors (e.g., Gleevec®/Imatinib, Sorafenib, BIRB-796), which bind to both the ATP site and a second site often referred to as the allosteric site. […] For 10 point titrations, 3-fold serial dilutions are conducted from the starting concentration (see Table 2 below). [table] All Kinase/Antibody Mixtures are diluted to a 2× working concentration in the specified kinase buffer. The 4× AlexaFluor labeled Tracer is prepared in Kinase Buffer. Bar-coded, low volume, white 384-well plate (Greiner Cat. #784207) […] 2. 3.84 μL—Kinase Buffer […] 4. 4.0 μL—4× Tracer 5. 30-second plate shake 6. 60-minute incubation at room temperature 7. […] The LanthaScreen Eu Kinase Binding Assay data is analyzed using the equations in Table 3 for each set of data points. [table] Data generated were plotted using the graphing software XLfit from IDBS. The dose response curve is curve fit to model number 205.
(In general: TR-FRET usually uses a lanthanide donor and a delayed reading to cut background.)

The test system of test [2] is TGF-beta induced SMAD signaling. The experiment in a line: RDSR (RD SMAD reporter) Cellular Reporter Assay. The conditions noted are these: Homo sapiens. In kind it is cell-based. The text has this: TGF-β signaling is triggered when the activated TGF-β homodimer binds to the TGF-β receptor 2, which in turn leads to the recruitment and phosphorylation of TGF-β receptor 1 (ALK5). Activated TGF-β receptor 1 phosphorylates the signal transduction molecules SMAD2 and SMAD3. These bind to common mediator SMAD4 and translocate to the nucleus where they bind to short conserved DNA sequences called the SMAD binding element and induce the transcription of various target genes. […] Certain example compounds were also or alternatively assayed using the RDSR Cellular Reporter Assay. Overview and Design: The RD SMAD reporter (RDSR) cell line was generated by stabily integrating the SMAD cellular reporter plasmid (Promega, pGL4.48[luc2P/SBE/Hygro]) into the human rhabdomyosarcoma cell line RD (ATCC, CCL-136). Once SMAD signaling is triggered, with, for example, the addition of TGF-β 1, receptor activated SMADs bind the SMAD binding elements (SBEs) leading to the expression of intracellular luciferase. To determine the potency of compounds at inhibiting TGF-beta induced SMAD signaling, the RDSR reporter system was utilized. The rhabdomyosarcoma line RD (ATCC, CCL-136) was transfected with a SMAD reporter vector (Promega, E3671) and a polyclonal stable cell line was selected using hygromycin B. The transfected vector contains three copies of a SMAD-binding element (SBE) that drive transcription of the luciferase reporter gene luc2P (Photinus pyralis). luc2P is a synthetically-derived luciferase sequence with humanized codon optimization that is designed for high expression and reduced anomalous transcription. The luc2P gene contains hPEST, a protein destabilization sequence, which allows luc2P protein levels to respond more quickly than those of luc2 to induction of transcription. The intracellular luciferase is quantified by the addition of equal volume (100 μl) of ONE-GLO substrate (Promega, E6120) and read within ten minutes on the Envision plate reader. The stable RDSR cell line was tested by evaluating the response to human TGF-β1 (R&D Systems, 7754-BH-005) as well as human myostatin (R&D Systems, 788-G8-010/CF) in a concentration dependent manner after twenty-four hours of stimulation. […] For compound evaluation, the tool drugs Galunisertib and Vactosertib were included as positive controls. The tool drugs and the compounds of the invention being tested were all incubated with cells for one hour at 37° C. before stimulation with 200 pg/ml rhTGF-beta1 for twenty-four hours. The activity of the reporter was determined with the addition of ONE-GLO (Promega) substrate and luminescence counts collected on the Envision plate reader (Perkin Elmer). […] The activity of compounds of the invention as determined using this method are reported in the third column of Table 1, below.
On the technique in general: Reporter assays use an easily measured gene product as a stand-in for the process of interest.

The mark [3] stands for this setting: 200 pg/ml rhTGF-beta1, 24 h, read-out: RD-SMAD reporter activity.

Read-outs that look alike come from different tables or passages of the source. A value given as a limit tells only on which side of the number the result lay.

Chain of ALK-5 (P36897 34-503): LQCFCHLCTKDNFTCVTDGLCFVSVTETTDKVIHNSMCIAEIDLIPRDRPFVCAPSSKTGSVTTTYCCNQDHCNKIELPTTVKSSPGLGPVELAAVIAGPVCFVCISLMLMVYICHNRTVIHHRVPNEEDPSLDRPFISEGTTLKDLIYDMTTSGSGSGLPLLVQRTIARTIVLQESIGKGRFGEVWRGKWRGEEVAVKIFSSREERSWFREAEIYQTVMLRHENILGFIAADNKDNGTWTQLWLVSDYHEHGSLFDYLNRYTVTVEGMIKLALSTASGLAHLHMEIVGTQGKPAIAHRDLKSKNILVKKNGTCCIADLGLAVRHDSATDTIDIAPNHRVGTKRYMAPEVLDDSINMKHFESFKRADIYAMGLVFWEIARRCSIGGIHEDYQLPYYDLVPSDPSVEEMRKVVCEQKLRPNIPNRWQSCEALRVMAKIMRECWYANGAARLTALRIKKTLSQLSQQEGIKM

For the molecule `Cc1c(F)ccc2c(Nc3ccnc(Nc4ccc(N5CCN(C)CC5)cc4)n3)cnnc12` [EX-01, N4-(7-fluoro-8-methylcinnolin-4-yl)-N2-(4-(4-methyl-piperazin-1-yl)-phenyl)-pyrimidine-2,4-diamine], in test [1], the “Kinase Selectivity: ALK2 IC50/ ALK5 IC50” value was “(++) (10<ALK2/ALK5<100=[++])” and the IC50 was < 10 nM. Besides, the IC50 in test [2] (setting [3]) is < 100 nM.

Turning to `Cc1c(F)ccc2c(Nc3ccnc(Nc4ccc(N5CCNCC5)cc4)n3)cnnc12` [EX-02, N4-(7-fluoro-8-methylcinnolin-4-yl)-N2-(4-(piperazin-1-yl)phenyl)-pyrimidine-2,4-diamine], in test [1], the “Kinase Selectivity: ALK2 IC50/ ALK5 IC50” value was “(++) (10<ALK2/ALK5<100=[++])” and the IC50 was < 10 nM. Moreover, the IC50 in test [2] (setting [3]) is < 100 nM.

Regarding `Cc1cccc2c(Nc3ccnc(Nc4cc(CN5CCNCC5)ccc4F)n3)cnnc12` [EX-03, N2-(2-fluoro-5-(piperazin-1-yl-methyl)phenyl)-N4-(8-methyl-cinnolin-4-yl)-pyrimidine-2,4-diamine], in test [1], the “Kinase Selectivity: ALK2 IC50/ ALK5 IC50” value is “(++) (10<ALK2/ALK5<100=[++])” and the IC50 was < 10 nM. Moreover, in test [2] (setting [3]), the IC50 was 100 to 1000 nM.

For the molecule `Cc1cccc2c(Nc3ccnc(Nc4cccc(CN5CCN(C)CC5)c4)n3)cnnc12` [EX-04, N4-(8-methyl-cinnolin-4-yl)-N2-(3-((4-methyl-piperazin-1-yl)methyl)phenyl)pyrimidine-2,4-diamine], in test [1], the “Kinase Selectivity: ALK2 IC50/ ALK5 IC50” value is “(+) (≤10=[+])” and the IC50 was < 10 nM. Further, the IC50 in test [2] (setting [3]) was < 100 nM.

On to `Cc1cccc2c(Nc3ccnc(Nc4ccc(CC5CCNCC5)cc4)n3)cnnc12` [EX-05, N4-(8-methylcinnolin-4-yl)-N2-(4-(piperidin-4-ylmethyl)pheny)pyrimidine-2,4-diamine], for which, in test [1], the “Kinase Selectivity: ALK2 IC50/ ALK5 IC50” value is “(++) (10<ALK2/ALK5<100=[++])” and the IC50 is < 10 nM. For the same molecule, the IC50 in test [2] (setting [3]) is 100 to 1000 nM.

As for `Cc1cccc2c(Nc3ccnc(Nc4cc(F)cc(CN5CCNCC5)c4)n3)cnnc12` [EX-06, N2-(3-fluoro-5-(piperazin-1-ylmethyl)phenyl)-N4-(8-methyl-cinnolin-4-yl)pyrimidine-2,4-diamine], in test [1], the “Kinase Selectivity: ALK2 IC50/ ALK5 IC50” value was “(+) (≤10=[+])” and the IC50 was < 10 nM. Further, in test [2] (setting [3]), the IC50 is < 100 nM.

Consider `Cc1cc(F)cc2c(Nc3ccnc(Nc4ccc(N5CCN(C)CC5)cc4)n3)cnnc12` [EX-07, N4-(6-fluoro-8-methylcinnolin-4-yl)-N2-(4-(4-methylpiperazin-1-yl)phenyl)pyrimidine-2,4-diamine], for which, in test [1], the “Kinase Selectivity: ALK2 IC50/ ALK5 IC50” value is “(++) (10<ALK2/ALK5<100=[++])” and the IC50 is < 10 nM. The IC50 in test [2] (setting [3]) was < 100 nM.

Regarding `Cc1cccc2c(Nc3ccnc(Nc4ccc(N5CCNCC5)c(F)c4)n3)cnnc12` [EX-08, N2-(3-fluoro-4-(piperazin-1-yl)phenyl)-N4-(8-methylcinnolin-4-yl)pyrimidine-2,4-diamine], the “Kinase Selectivity: ALK2 IC50/ ALK5 IC50” value in test [1] is “(++) (10<ALK2/ALK5<100=[++])”. Besides, the IC50 in test [1] is < 10 nM; in test [2] (24 h, read-out: RD-SMAD reporter activity (nM)), < 100 nM.

For the molecule `Cc1cccc2c(Nc3nc(Nc4ccc(N5CCNCC5)cc4)ncc3F)cnnc12` [EX-09, 5-fluoro-N4-(8-methyl-cinnolin-4-yl)-N2-(4-(piperazin-1-yl)phenyl)pyrimidine-2,4-diamine], the “Kinase Selectivity: ALK2 IC50/ ALK5 IC50” value in test [1] is “(+) (≤10=[+])”. Also, the IC50 is 10 to 100 nM in test [1] and 100 to 1000 nM in test [2] (setting [3]).

Take `Cc1cc(F)cc2c(Nc3ccnc(Nc4ccc(N5CCNCC5)cc4)n3)cnnc12` [EX-15, N4-(6-fluoro-8-methyl-cinnolin-4-yl)-N2-(4-(piperazin-1-yl)phenyl)-pyrimidine-2,4-diamine]: in test [1], the “Kinase Selectivity: ALK2 IC50/ ALK5 IC50” value is “(++) (10<ALK2/ALK5<100=[++])” and the IC50 is < 10 nM. Further, the IC50 in test [2] (setting [3]) is < 100 nM.

In the case of `Cc1cccc2c(Nc3ccnc(Nc4cc(CC5CCNCC5)ccc4F)n3)cnnc12` [EX-16, N2-(2-fluoro-5-(piperidin-4-ylmethyl)-phenyl)-N4-(8-methyl-cinnolin-4-yl)-pyrimidine-2,4-diamine], in test [1], the “Kinase Selectivity: ALK2 IC50/ ALK5 IC50” value was “(++) (10<ALK2/ALK5<100=[++])” and the IC50 lay within 10 to 100 nM. Further, the IC50 in test [2] (setting [3]) fell in the range of 100 to 1000 nM.

On to `Cc1cccc2c(Nc3ccnc(Nc4ccc(N5CCN(CC(F)(F)F)CC5)cc4)n3)cnnc12` [EX-17, N4-(8-methyl-cinnolin-4-yl)-N2-(4-(4-(2,2,2-trifluoroethyl)-piperazin-1-yl)phenyl)-pyrimidine-2,4-diamine], for which, in test [1], the “Kinase Selectivity: ALK2 IC50/ ALK5 IC50” value was “(++) (10<ALK2/ALK5<100=[++])” and the IC50 was < 10 nM. For the same molecule, the IC50 in test [2] (setting [3]) is < 100 nM.

Turning to `Cc1cccc2c(Nc3ccnc(Nc4ccc(CN5CCNCC5)cc4)n3)cnnc12` [EX-20, N4-(8-methyl-cinnolin-4-yl)-N2-(4-(piperazin-1-yl-methyl)phenyl)pyrimidine-2,4-diamine], in test [1], the “Kinase Selectivity: ALK2 IC50/ ALK5 IC50” value was “(++) (10<ALK2/ALK5<100=[++])” and the IC50 is < 10 nM. Further, the IC50 in test [2] (setting [3]) is < 100 nM.

For `Cc1cccc2c(Nc3ccnc(Nc4ccc(N5CCN(C)CC5)cc4F)n3)cnnc12` [EX-21, N2-(2-fluoro-4-(4-methyl-piperazin-1-yl)phenyl)-N4-(8-methyl-cinnolin-4-yl)-pyrimidine-2,4-diamine], in test [1], the “Kinase Selectivity: ALK2 IC50/ ALK5 IC50” value was “(++) (10<ALK2/ALK5<100=[++])” and the IC50 is 10 to 100 nM. Also, the IC50 in test [2] (setting [3]) was 100 to 1000 nM.

For `Cc1cccc2c(Nc3ccnc(Nc4ccc(N5CCNCC5)cc4F)n3)cnnc12` [EX-22, N2-(2-fluoro-4-(piperazin-1-yl)phenyl)-N4-(8-methylcinnolin-4-yl)pyrimidine-2,4-diamine], the “Kinase Selectivity: ALK2 IC50/ ALK5 IC50” value in test [1] is “(+++) (100≤ALK2/ALK5=[+++])”. Also, the results for the IC50 in test [1] and in test [2] (setting [3]) were < 10 nM and < 100 nM, respectively.

For `Cc1cccc2c(Nc3ccnc(Nc4ccc(N5CCN(C)CC5)nc4)n3)cnnc12` [EX-23, N4-(8-methylcinnolin-4-yl)-N2-(6-(4-methylpiperazin-1-yl)pyridin-3-yl)pyrimidine-2,4-diamine], in test [1], the “Kinase Selectivity: ALK2 IC50/ ALK5 IC50” value was “(++) (10<ALK2/ALK5<100=[++])” and the IC50 is < 10 nM. In addition, in test [2] (setting [3]), the IC50 was < 100 nM.

With `Cc1ccc(F)c2c(Nc3ccnc(Nc4ccc(N5CCN(C)CC5)cc4)n3)cnnc12` [EX-24, N4-(5-fluoro-8-methylcinnolin-4-yl)-N2-(4-(4-methylpiperazin-1-yl)phenyl)pyrimidine-2,4-diamine], the “Kinase Selectivity: ALK2 IC50/ ALK5 IC50” value in test [1] was “(++) (10<ALK2/ALK5<100=[++])”. In addition, the results for the IC50 in test [1] and in test [2] (setting [3]) were < 10 nM and < 100 nM, respectively.

Take `Cc1cccc2c(Nc3ccnc(Nc4ccc(CN5CCOCC5)cc4)n3)cnnc12` [EX-25, N4-(8-methylcinnolin-4-yl)-N2-(4-(morpholinomethyl)phenyl)pyrimidine-2,4-diamine]: the “Kinase Selectivity: ALK2 IC50/ ALK5 IC50” value in test [1] is “(++) (10<ALK2/ALK5<100=[++])”. In addition, the results for the IC50 in test [1] and in test [2] (setting [3]) were < 10 nM and < 100 nM, respectively.
